Source: patent publication US20240123080A1, “CYTOTOXIC COMPOUNDS AND CONJUGATES THEREOF” (Seagen Inc., priority 2022, published 2024)
*1 amine or outer side, *2 acyl side, *3 side chain or, on linkers, in order; H or OH if unused. Where a SMILES comes first, the peptide text is derived from it. [ ]: non-standard residue; d: D form. The star is where a group is joined. Dolaproine = CO[C@@H]([C@@H]1CCCN1)[C@@H](C)C(=O)O; Dil = CC[C@H](C)[C@H](NC)[C@@H](CC(=O)O)OC; Met(O2) = CS(=O)(=O)CC[C@H](N)C(=O)O; X9 = CCN([C@@H](CO)C(=O)[*:2])[*:1]; X1 = C[C@@H](N*)[C@@H](O)c1ccccc1; X10 = C[C@H]1OC(=O)N[C@@H]1C(=O)*; Phe(ol) = N[C@H](CO)Cc1ccccc1; X4 = CN1C(=O)OC(C)(C)C1C(=O)*; X6 = CN(C)[C@@H](CCO)C(=O)*; X8 = CN1C(=O)OC[C@H]1C(=O)*; X5 = O=C1N[C@H](C(=O)*)CO1; NMeS = CN[C@@H](CO)C(=O)O; hSer = N[C@@H](CCO)C(=O)O; X7 = O=C1NC(C(=O)*)CCO1; Dap = NC[C@H](N)C(=O)O

Assays:
Assay in all cases: In vitro cytotoxicity, cell proliferation assay (CellTiter-Glo, 96 h)
Type in all cases: cell-based
DEL ALCL = conditions: auristatin free drug
Protocol: (§1) The cytotoxicity of free drugs and drug conjugates were measured by a cell proliferation assay employing the protocol described in Promega Corp. Technical Bulletin TB288; and Mendoza et al., 2002, Cancer Res. 62:5485-5488), the methods of which are specifically incorporated by reference herein. Briefly, an aliquot of 40 μl of cell culture containing about 400 cells in medium is deposited in each well of a 384-well, opaque-walled plate. A 10 μL aliquot of free drug or drug conjugate is added to the experimental wells and incubated for 96 h and are then equilibrated to room temperature for approximately 30 minutes whereupon a volume of CellTiter-Glo™ reagent equal to the volume of cell culture medium present in each well is added. The contents are mixed for 2 minutes on an orbital shaker to induce cell lysis and the plate is incubated at room temperature for 10 minutes to stabilize the luminescence signal for recordation.

Karpas299 NHL = conditions: Homo sapiens, KARPAS-299, auristatin free drug
Protocol: as §1

L540cy HL = conditions: auristatin free drug
Protocol: as §1

SMILES	IC50 (DEL ALCL)	IC50 (Karpas299 NHL)	IC50 (L540cy HL)
CC[C@H](C)[C@@H]([C@@H](CC(=O)N1CCC[C@H]1[C@H](OC)[C@@H](C)C(=O)N[C@@H](Cc1ccccc1)C(=O)O)OC)N(C)C(=O)[C@@H](NC(=O)[C@H](CO)NC)C(C)C [Comparative Example A, reference compound] (H-[NMeS]V[Dil][Dolaproine]F-OH)	209 nM	253 nM	> 1000 nM
CC[C@H](C)[C@@H]([C@@H](CC(=O)N1CCC[C@H]1[C@H](OC)[C@@H](C)C(=O)N[C@@H](Cc1ccccc1)C(=O)O)OC)N(C)C(=O)[C@@H](NC(=O)[C@@H]1COC(=O)N1C)C(C)C [Comparative Example C, reference compound] (X8-V[Dil][Dolaproine]F-OH)	342 nM	218 nM	284 nM
CC[C@H](C)[C@@H]([C@@H](CC(=O)N1CCC[C@H]1[C@H](OC)[C@@H](C)C(=O)N[C@H](CO)Cc1ccccc1)OC)N(C)C(=O)[C@@H](NC(=O)[C@H](CCO)N(C)C)C(C)C [Example 9] (X6-V[Dil][Dolaproine][Phe(ol)])	0.8 nM	0.9 nM	4 nM
CC[C@H](C)[C@@H]([C@@H](CC(=O)N1CCC[C@H]1[C@H](OC)[C@@H](C)C(=O)N[C@H](C)[C@@H](O)c1ccccc1)OC)N(C)C(=O)[C@@H](NC(=O)[C@H]([C@@H](C)O)N(C)C)C(C)C [Example 10]	0.4 nM	0.5 nM	3 nM
CC[C@H](C)[C@@H]([C@@H](CC(=O)N1CCC[C@H]1[C@H](OC)[C@@H](C)C(=O)N[C@H](C)[C@@H](O)c1ccccc1)OC)N(C)C(=O)[C@@H](NC(=O)[C@@H](CO)N(C)C)C(C)C [Example 11]	1 nM	1 nM	6 nM
CCN[C@@H](CO)C(=O)N[C@H](C(=O)N(C)[C@@H]([C@@H](C)CC)[C@@H](CC(=O)N1CCC[C@H]1[C@H](OC)[C@@H](C)C(=O)N[C@H](CO)Cc1ccccc1)OC)C(C)C [Example 15] (H-[X9]V[Dil][Dolaproine][Phe(ol)])	0.7 nM	2.3 nM	3.9 nM
CC[C@H](C)[C@@H]([C@@H](CC(=O)N1CCC[C@H]1[C@H](OC)[C@@H](C)C(=O)N[C@H](CO)Cc1ccccc1)OC)N(C)C(=O)[C@@H](NC(=O)C[C@@H](NC)[C@@H](C)O)C(C)C [Example 22]	5.8 nM	13 nM	16 nM
CC[C@H](C)[C@@H]([C@@H](CC(=O)N1CCC[C@H]1[C@H](OC)[C@@H](C)C(=O)N[C@H](CO)Cc1ccccc1)OC)N(C)C(=O)[C@@H](NC(=O)[C@@H](N)CO)C(C)C [Example 23] (H-SV[Dil][Dolaproine][Phe(ol)])	17 nM	66 nM	662 nM
CC[C@H](C)[C@@H]([C@@H](CC(=O)N1CCC[C@H]1[C@H](OC)[C@@H](C)C(=O)N[C@H](CO)Cc1ccccc1)OC)N(C)C(=O)[C@@H](NC(=O)[C@@H](N)CCO)C(C)C [Example 24] (H-[hSer]V[Dil][Dolaproine][Phe(ol)])	13 nM	43 nM	621 nM
CC[C@H](C)[C@@H]([C@@H](CC(=O)N1CCC[C@H]1[C@H](OC)[C@@H](C)C(=O)N[C@H](CO)Cc1ccccc1)OC)N(C)C(=O)[C@@H](NC(=O)[C@@H](N)[C@@H](C)O)C(C)C [Example 25] (H-TV[Dil][Dolaproine][Phe(ol)])	18.9 nM	62 nM	457 nM
CC[C@H](C)[C@@H]([C@@H](CC(=O)N1CCC[C@H]1[C@H](OC)[C@@H](C)C(=O)N[C@H](C)[C@@H](O)c1ccccc1)OC)N(C)C(=O)[C@@H](NC(=O)[C@H](N)CO)C(C)C [Example 26] (H-[dS]V[Dil][Dolaproine]-X1)	4.2 nM	5 nM	20 nM
CC[C@H](C)[C@@H]([C@@H](CC(=O)N1CCC[C@H]1[C@H](OC)[C@@H](C)C(=O)N[C@H](C)[C@@H](O)c1ccccc1)OC)N(C)C(=O)[C@@H](NC(=O)[C@H](N)[C@H](C)O)C(C)C [Example 27] (H-[dT]V[Dil][Dolaproine]-X1)	1.9 nM	2.3 nM	13 nM
CC[C@H](C)[C@@H]([C@@H](CC(=O)N1CCC[C@H]1[C@H](OC)[C@@H](C)C(=O)N[C@H](CO)Cc1ccccc1)OC)N(C)C(=O)[C@@H](NC(=O)[C@@H]1COC(=O)N1C)C(C)C [Example 36] (X8-V[Dil][Dolaproine][Phe(ol)])	6.7 nM	27 nM	197 nM
CC[C@H](C)[C@@H]([C@@H](CC(=O)N1CCC[C@H]1[C@H](OC)[C@@H](C)C(=O)N[C@H](C)[C@@H](O)c1ccccc1)OC)N(C)C(=O)[C@@H](NC(=O)[C@@H]1COC(=O)N1C)C(C)C [Example 37]	> 1000 nM	> 1000 nM	> 1000 nM
CC[C@H](C)[C@@H]([C@@H](CC(=O)N1CCC[C@H]1[C@H](OC)[C@@H](C)C(=O)NCCc1ccccc1)OC)N(C)C(=O)[C@@H](NC(=O)[C@@H]1COC(=O)N1C)C(C)C [Example 38]	148 nM	> 1000 nM	512 nM
CC[C@H](C)[C@@H]([C@@H](CC(=O)N1CCC[C@H]1[C@H](OC)[C@@H](C)C(=O)N[C@@H](Cc1ccccc1)c1nccs1)OC)N(C)C(=O)[C@@H](NC(=O)[C@@H]1COC(=O)N1C)C(C)C [Example 39]	512 nM	> 1000 nM	> 1000 nM
CC[C@H](C)[C@@H]([C@@H](CC(=O)N1CCC[C@H]1[C@H](OC)[C@@H](C)C(=O)N[C@H](CO)Cc1ccccc1)OC)N(C)C(=O)[C@@H](NC(=O)[C@@H]1COC(=O)N1)C(C)C [Example 40] (X5-V[Dil][Dolaproine][Phe(ol)])	12.3 nM	60 nM	442 nM
CC[C@H](C)[C@@H]([C@@H](CC(=O)N1CCC[C@H]1[C@H](OC)[C@@H](C)C(=O)N[C@H](CO)Cc1ccccc1)OC)N(C)C(=O)[C@@H](NC(=O)C1CCOC(=O)N1)C(C)C (stereo partly drawn) [Example 41] (X7-V[Dil][Dolaproine][Phe(ol)])	15 nM	62 nM	457 nM
CC[C@H](C)[C@@H]([C@@H](CC(=O)N1CCC[C@H]1[C@H](OC)[C@@H](C)C(=O)N[C@H](CO)Cc1ccccc1)OC)N(C)C(=O)[C@@H](NC(=O)[C@H]1NC(=O)O[C@@H]1C)C(C)C [Example 42] (X10-V[Dil][Dolaproine][Phe(ol)])	16 nM	64 nM	481 nM
CC[C@H](C)[C@@H]([C@@H](CC(=O)N1CCC[C@H]1[C@H](OC)[C@@H](C)C(=O)N[C@H](CO)Cc1ccccc1)OC)N(C)C(=O)[C@@H](NC(=O)C1N(C)C(=O)OC1(C)C)C(C)C (stereo partly drawn) [Example 43] (X4-V[Dil][Dolaproine][Phe(ol)])	3.2 nM	5.9 nM	19 nM
CC[C@H](C)[C@@H]([C@@H](CC(=O)N1CCC[C@H]1[C@H](OC)[C@@H](C)C(=O)N[C@H](CO)Cc1ccccc1)OC)N(C)C(=O)[C@@H](NC(=O)[C@@H](N)CNC(C)=O)C(C)C [Example 46] (H-[Dap](Ac)V[Dil][Dolaproine][Phe(ol)])	141 nM	264 nM	> 1000 nM
CC[C@H](C)[C@@H]([C@@H](CC(=O)N1CCC[C@H]1[C@H](OC)[C@@H](C)C(=O)N[C@H](CO)Cc1ccccc1)OC)N(C)C(=O)[C@@H](NC(=O)[C@@H](N)CCS(C)(=O)=O)C(C)C [Example 47] (H-[Met(O2)]V[Dil][Dolaproine][Phe(ol)])	> 1000 nM	> 1000 nM	> 1000 nM
